The source of these data is publication PMC4058118, “Impact of Wines and Wine Constituents on Cyclooxygenase-1, Cyclooxygenase-2, and 5-Lipoxygenase Catalytic Activity” (Mediators of Inflammation, 2014).

Where two headings read alike, the source gives them in different places. A value given as a limit tells only on which side of the number the result lay.

Experiment [1] deals with T1, 5-LOX (Homo sapiens, UniProt P09917).
T1 construct: endogenous in cells; host or cells: leukocytes isolated from buffy coat of healthy donors
T1 sequence (P09917 1-674): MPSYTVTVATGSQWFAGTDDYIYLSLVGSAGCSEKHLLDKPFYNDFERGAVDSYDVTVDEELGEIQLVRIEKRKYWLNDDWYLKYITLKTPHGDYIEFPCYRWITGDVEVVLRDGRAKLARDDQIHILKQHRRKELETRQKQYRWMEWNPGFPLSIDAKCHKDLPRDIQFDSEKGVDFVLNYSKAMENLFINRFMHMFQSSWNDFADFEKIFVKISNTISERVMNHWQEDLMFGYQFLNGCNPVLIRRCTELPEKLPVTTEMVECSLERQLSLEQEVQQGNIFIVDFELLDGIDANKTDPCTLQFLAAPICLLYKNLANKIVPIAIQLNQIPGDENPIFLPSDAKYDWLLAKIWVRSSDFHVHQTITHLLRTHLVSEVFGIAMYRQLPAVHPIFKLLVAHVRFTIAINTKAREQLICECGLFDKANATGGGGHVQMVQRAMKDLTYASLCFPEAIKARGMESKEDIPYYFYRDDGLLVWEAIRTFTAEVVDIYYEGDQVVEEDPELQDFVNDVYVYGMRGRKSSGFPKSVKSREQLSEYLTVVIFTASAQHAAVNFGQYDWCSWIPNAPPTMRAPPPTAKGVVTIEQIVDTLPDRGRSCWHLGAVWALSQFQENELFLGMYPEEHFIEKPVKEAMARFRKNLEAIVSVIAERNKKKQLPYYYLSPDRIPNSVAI
Kind of experiment: 5-LOX assay (LTB4 formation in cells from buffy coat, ELISA). Format: cell-based. (In general: An ELISA detects its analyte on a solid surface through an enzyme-linked reagent.)

Experiment [2] deals with T2, COX-1 from ram seminal vesicles (Ovis aries, UniProt P05979).
T2 construct: COX-1 from ram seminal vesicles; purchased Sigma-Aldrich (Czech Republic); host or cells: ram seminal vesicles (tissue-derived enzyme)
T2 sequence (P05979 25-600): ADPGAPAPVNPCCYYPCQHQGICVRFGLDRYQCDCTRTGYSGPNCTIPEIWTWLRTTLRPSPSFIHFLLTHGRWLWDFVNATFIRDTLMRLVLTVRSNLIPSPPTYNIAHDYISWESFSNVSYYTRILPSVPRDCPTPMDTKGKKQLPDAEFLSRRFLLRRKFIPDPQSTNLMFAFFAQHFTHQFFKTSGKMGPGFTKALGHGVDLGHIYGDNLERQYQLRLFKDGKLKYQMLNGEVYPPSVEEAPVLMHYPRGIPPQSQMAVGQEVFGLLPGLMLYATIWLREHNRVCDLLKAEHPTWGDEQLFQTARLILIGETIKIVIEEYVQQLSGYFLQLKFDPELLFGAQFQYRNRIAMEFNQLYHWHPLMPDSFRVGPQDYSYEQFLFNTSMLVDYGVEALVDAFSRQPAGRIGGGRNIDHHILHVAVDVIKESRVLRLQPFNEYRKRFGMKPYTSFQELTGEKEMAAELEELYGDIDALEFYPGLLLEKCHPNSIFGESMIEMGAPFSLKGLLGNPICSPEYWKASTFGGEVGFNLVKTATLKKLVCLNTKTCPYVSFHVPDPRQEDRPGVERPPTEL
Kind of experiment: COX-1 assay (PGE2 formation, ELISA). Format: biochemical.

For experiment [3], the system named is COX-2. Conditions: cited from earlier work.
For experiment [4], the target named is T3, human recombinant COX-2 (Homo sapiens, UniProt P35354).
T3 construct: purchased Sigma-Aldrich (Czech Republic)
T3 sequence (P35354 18-604): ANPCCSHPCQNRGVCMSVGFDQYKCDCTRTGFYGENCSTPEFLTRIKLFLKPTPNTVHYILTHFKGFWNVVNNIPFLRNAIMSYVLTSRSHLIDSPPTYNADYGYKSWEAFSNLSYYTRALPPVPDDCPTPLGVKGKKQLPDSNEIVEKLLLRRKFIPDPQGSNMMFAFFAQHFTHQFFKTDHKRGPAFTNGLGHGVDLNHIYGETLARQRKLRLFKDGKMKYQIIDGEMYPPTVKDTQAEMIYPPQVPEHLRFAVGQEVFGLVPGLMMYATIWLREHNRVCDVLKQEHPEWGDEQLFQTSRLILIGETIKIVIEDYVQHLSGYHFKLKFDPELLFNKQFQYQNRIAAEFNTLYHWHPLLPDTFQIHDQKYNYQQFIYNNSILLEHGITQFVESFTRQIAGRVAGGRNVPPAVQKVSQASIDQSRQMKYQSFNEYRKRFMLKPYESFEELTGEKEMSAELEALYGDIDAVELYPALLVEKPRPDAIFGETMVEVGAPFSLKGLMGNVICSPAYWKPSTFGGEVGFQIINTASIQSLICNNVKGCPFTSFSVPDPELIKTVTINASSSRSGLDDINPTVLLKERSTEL
Kind of experiment: COX-2 assay (PGE2 formation, ELISA). Format: biochemical. As to conditions: for IC50: read-out: IC50 COX-2 (dash).

Experiment [5] relates to COX-1. As to conditions: cited from earlier work.
Where [6] appears, read: mean ± SD, read-out: IC50 ± SD COX-1.
The mark [7] stands for this setting: mean ± SD, read-out: IC50 ± SD 5-LOX.
Where [8] appears, read: dash = IC50 > 50 μM, read-out: IC50 COX-1 (dash).

Regarding `Oc1ccc(/C=C/c2cc(O)cc(O)c2)cc1` [Resveratrol, trans-resveratrol], the figures for the IC50 in experiment [1] (read-out: IC50 5-LOX (dash)) and in experiment [2] (setting [6]) were above 50 µM and 2.27 ± 1.17 µM, respectively.

In the case of `Oc1cc(O)cc(/C=C/c2ccc(O)c(O)c2)c1` [Piceatannol, piceatannol], the IC50 – broadly, the point on the concentration scale where inhibition reaches its midpoint – in experiment [3] (ref 5 (Murias et al.)) was 0.0113 µM; in experiment [4], above 50 µM; in experiment [5] (ref 5 (Murias et al.)), 4.71 µM; in experiment [5] (ref 39 (Gerhäuser et al.)), 81.4 µM; in experiment [1] (setting [7]) it was 0.76 ± 0.35 µM; in experiment [2], above 50 µM. Besides, the “inhibition of COX-2” value in experiment [3] (ref 38 (Lee et al.)) is listed as “no inhibition”. Further, the “inhibition of COX-1” value in experiment [5] (ref 38 (Lee et al.)) is reported as “no inhibition”.

For `O=c1c(O)c(-c2ccc(O)cc2)oc2cc(O)cc(O)c12` [Kaempferol, kaempferol], the IC50 in experiment [4] was above 50 µM; in experiment [1] (read-out: IC50 5-LOX (dash)), above 50 µM; in experiment [2] (setting [6]), 43.8 ± 18.8 µM.

With `O=c1c(O)c(-c2cc(O)c(O)c(O)c2)oc2cc(O)cc(O)c12` [Myricetin, myricetin], the IC50 was above 50 µM in experiment [4], 4.02 ± 2.37 µM in experiment [1] and above 50 µM in experiment [2] (setting [8]).

On to `Oc1cc(O)c2c(c1)O[C@H](c1ccc(O)c(O)c1)[C@@H](O)C2` [(+)-catechin], for which the “COX-2 inhibitory activity” value in experiment [4] (50 μM concentration) was “inactive”. Further, the “COX-1 inhibitory activity” value in experiment [2] (50 μM concentration) is “inactive”.

With `O=c1cc(-c2ccc(O)c(O)c2)oc2cc(O)cc(O)c12` [Luteolin, luteolin], the IC50 in experiment [4] was above 50 µM; in experiment [1] (setting [7]) it was 2.25 ± 1.75 µM; in experiment [2] (setting [8]), above 50 µM.

Regarding `O=c1c(O)c(-c2ccc(O)c(O)c2)oc2cc(O)cc(O)c12` [Quercetin, quercetin], the 50% inhibitory concentration (IC50) in experiment [4] was above 50 µM; in experiment [2] (setting [6]), 43.8 µM; in experiment [2] (read-out: IC50 COX-1 (dash)), above 50 µM.
